Measurements as given in article PMC5495814, “The impact of the butterfly effect on human parainfluenza virus haemagglutinin-neuraminidase inhibitor design” (Scientific Reports, 2017).
Where “and” joins values, the source holds several entries; their conditions need not be identical. Equal values may be shown once. Read-outs that look alike come from different tables or passages of the source.

Legend:
[1] = biological target: hPIV-3 HN neuraminidase function (Human parainfluenza 3 virus, UniProt P08492); assay: biochemical; set-up: species or system human parainfluenza virus type 3 (hPIV-3, strain C-243); conditions: for IC50: NI IC50, purified hPIV-3, MUN substrate, pH 4.6, means of 3 independent experiments
hPIV-3 HN neuraminidase function, sequence (P08492 whole entry): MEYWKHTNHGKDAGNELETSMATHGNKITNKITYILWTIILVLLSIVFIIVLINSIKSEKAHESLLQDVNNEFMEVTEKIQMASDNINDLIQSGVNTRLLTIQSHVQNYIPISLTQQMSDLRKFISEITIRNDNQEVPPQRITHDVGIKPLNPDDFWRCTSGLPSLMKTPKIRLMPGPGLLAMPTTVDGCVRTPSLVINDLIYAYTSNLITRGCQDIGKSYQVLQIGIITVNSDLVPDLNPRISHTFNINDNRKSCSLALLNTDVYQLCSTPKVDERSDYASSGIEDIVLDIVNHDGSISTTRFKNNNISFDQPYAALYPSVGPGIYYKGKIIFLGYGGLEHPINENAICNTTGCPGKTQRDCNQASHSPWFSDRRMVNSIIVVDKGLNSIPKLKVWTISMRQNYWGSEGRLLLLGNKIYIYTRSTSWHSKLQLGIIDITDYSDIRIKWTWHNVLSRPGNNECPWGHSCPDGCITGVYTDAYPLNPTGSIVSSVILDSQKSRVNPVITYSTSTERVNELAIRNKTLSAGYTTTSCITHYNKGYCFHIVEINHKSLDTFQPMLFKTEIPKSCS

[2] = biological target: hPIV-3 HN haemagglutinin function (Human parainfluenza 3 virus, UniProt P08492); assay: cell-based; set-up: species or system human parainfluenza virus type 3 (hPIV-3); conditions: HI IC50, human red blood cells, 4 °C, 90 min
hPIV-3 HN haemagglutinin function, sequence (P08492 whole entry): as above
Description: The HN inhibitors were assessed in haemagglutination inhibition assays using human red blood cells (RBC) as previously described[10] with minor modifications. The lowest final concentration of hPIV-3 that leads to a complete agglutination of human-RBC at 4 °C is considered as 1 HAU. 4 haemagglutination units (HAU) of hPIV-3 (final 1 HAU per well) were pre-mixed with inhibitors of each tested concentration (4X dilution in PBS) on ice. Next, an equivalent volume of ice-cold 1% human-RBC in PBS was added to each well of the inhibitor/virus pre-mixture and the plate was then incubated for 90 min at 4 °C before determining the extent of haemagglutination inhibition.

[3] = biological target: T1, human neuraminidase 2 (hNeu2) (Homo sapiens, UniProt Q9Y3R4); assay: NI assay with recombinant human neuraminidase 2; assay type: biochemical; conditions: inhibitors tested 0.001 μM to 1000 μM, 0.5 mM MUN, pH 5.5
T1 construct: GST (own knowledge: pGEX-2T encodes an N-terminal GST with a thrombin site); made in house; host or cells: E. coli
T1 sequence (Q9Y3R4 whole entry): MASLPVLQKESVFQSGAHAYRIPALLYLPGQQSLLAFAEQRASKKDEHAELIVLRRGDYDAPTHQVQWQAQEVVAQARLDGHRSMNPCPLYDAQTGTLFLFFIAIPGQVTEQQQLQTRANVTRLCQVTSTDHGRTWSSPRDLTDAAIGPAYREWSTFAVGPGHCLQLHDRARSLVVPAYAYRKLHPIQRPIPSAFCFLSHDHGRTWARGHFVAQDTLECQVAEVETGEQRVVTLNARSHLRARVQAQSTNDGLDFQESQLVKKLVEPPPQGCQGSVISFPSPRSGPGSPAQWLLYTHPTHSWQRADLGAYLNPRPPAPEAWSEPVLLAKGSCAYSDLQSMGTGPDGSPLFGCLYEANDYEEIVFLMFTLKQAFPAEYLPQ
Description: Finally, all inhibitors were assessed for cytotoxicity to human A549 cells with no toxicity observed at a concentration of 300 µM (data not shown). In addition, we investigated[9] the capacity of the synthesized inhibitors 5–8 to inhibit human neuraminidase 2 (hNeu2) compared with the well-described neuraminidase inhibitor Neu5Ac2en (2)[28].
The NI assay with human Neuraminidase 2 (hNeu2) was performed as previously described, using 60 ng of purified hNeu2 enzyme in reaction buffer/hNeu2 (NaOAc 50 mM, pH 5.5), supplemented with 10 μg BSA and 0.5 mM MUN per reaction. All inhibitors were tested in duplicate in the concentration range from 0.001 μM to 1000 μM. After 10 min of incubation with agitation (1000 rpm) at 37 °C, the enzymatic reaction was stopped with glycine buffer (glycine 0.25 M, pH 10.4) and the product fluorescence was measured in relative fluorescence units (RFU) using a Victor 3 multilabel reader (PerkinElmer, Waltham, MA). Controls were conducted with MUN and purified hNeu2, the enzymatic reaction was stopped at t = 0 for the negative control and at t = 10 min for the positive control.
The obtained data were normalised by background (negative control RFU) subtraction and processed data were analyzed with GraphPadPrism 4 (GraphPad Software Inc., La Jolla, CA) to calculate IC50 values. The concentration of inhibitor that reduced the neuraminidase activity by 50% compared to those of a non-treated virus/protein suspension was considered as the NI IC50 value.

[4] = tested on: hPIV-3; assay: Virus growth inhibition by in situ ELISA in A549 cells
[5] = biological target: soluble hPIV-3 HN; set-up: method as in PMID 23740997; conditions: in complex with soluble hPIV-3 HN; cited from earlier work
[6] = Human respirovirus 3, A549, in Homo sapiens, read-out: Virus growth inhibition IC50, in situ ELISA, human cell line A549, 36–40 h
[7] = read-out: Virus growth inhibition IC50, in situ ELISA, human cell line A549, 36–40 h

Compound	IC50 [1]	increase in potency (NI) compared to Neu2en analogue 6 ([1]; NI IC50 of 8 versus 6)	IC50 [2]	Inhibition of hNeu2 [3]	IC50 [4, 6]	IC50 [4, 7]	Kd [5]
COCc1cn([C@@H]2[C@@H](NC(=O)C(C)C)[C@H]([C@H](O)[C@H](O)CO)O[C@@](F)(C(=O)O)[C@H]2F)nn1 [Inhibitor 8]	6.7 µM and 6.75 µM	2 fold	57 µM	No inhibition	14.3 ± 0.3 µM	14.3 µM	
CC(C)C(=O)N[C@H]1[C@H]([C@H](O)[C@H](O)CO)O[C@@](F)(C(=O)O)[C@@H](F)[C@@H]1n1cc(-c2ccccc2)nn1 [Inhibitor 7]	55.3 µM		775 µM	No inhibition	40.1 ± 7 µM	40.1 µM	
COCc1cn([C@H]2C=C(C(=O)O)O[C@@H]([C@H](O)[C@H](O)CO)[C@@H]2NC(=O)C(C)C)nn1 [Inhibitor 6, reference compound]	14.5 µM		3.88 µM and 3.9 µM	No inhibition	82.4 ± 7.7 µM	82.4 µM	
Neu5Acα2–3 Galβ1–4GlcNAcβ1–3 Galβ1–4GlcNAc [3′SiaDiLN]							4300 µM
CC(C)C(=O)N[C@H]1[C@H]([C@H](O)[C@H](O)CO)OC(C(=O)O)=C[C@@H]1n1cc(-c2ccccc2)nn1 [Inhibitor 5, reference compound]				No inhibition	11.2 ± 0.9 µM	11.2 µM	
